A melting point compilation (Tetko et al.; mined from patent text by program, amines drawn as free bases though some values may be those of a salt)

CCCC[C@H](NC(=O)[C@H](CC(C)C)NC(=O)c1ccc(F)cc1F)C(=O)CSCc1ccco1 showed a melting point of 97 to 98 °C. With Cc1cc(Cl)ccc1Oc1cccc(-c2ncccn2)n1 the melting point was 105 °C. Work on Cc1cc(-c2ncn3c(C(F)(F)F)cc(-c4ccc(Cl)cc4)nc23)ccn1 yielded a melting point of 232 °C. In the case of CC(=O)NC1CCN(c2cccc(Sc3ccccc3)n2)CC1, the melting point is reported as 110 to 112 °C. With COC(=O)c1ccc(=O)n(CCCNC(=O)c2ccccn2)c1 the melting point was 115 to 116 °C. N#Cc1cc(-c2ccoc2)c2ccc(Sc3cccc(-c4ccccc4)n3)cc2c1 gave a melting point of 143 to 146 °C. COC(=O)c1ccc(O)c(C(=O)OC)c1 gave a melting point of 93 to 94 °C. With CC(C)(S)CN1CCN(C(=O)c2ccc(O)cc2)CC1 the melting point was 46 °C. In the case of CC(=O)OC1SCC2C1N(Cc1ccccc1)C(=O)N2Cc1ccccc1 (stereo not given), the melting point is reported as 72 to 74 °C. In the case of Cc1ncccc1CCCC(C)NC(=O)C(O)c1ccccc1 (stereo not given), the melting point is reported as 133 to 134 °C. COCCOc1cccc(-c2cncc(C#N)c2Nc2ccc3[nH]ccc3c2C)c1 showed a melting point of 158 to 160 °C. Work on CCOc1ccc(-c2ccc3c(c2)C=C(C(=O)OC)CCN3C=O)cc1 yielded a melting point of 133 to 135 °C. For Oc1c2c(nn1-c1ccc(F)cc1)CCc1cc(F)ccc1-2, the melting point was 220 to 221 °C. Work on COc1cc(OC)c(C(O)=S)cc1C yielded a melting point of 151 to 153 °C. In the case of O=NCNC1=Nc2ccc(Cl)cc2C(c2ccccc2F)=NC1, the melting point is reported as 170 to 172 °C. In the case of CCC(=O)c1ccc(OCc2cccc(C(F)(F)F)c2)cc1, the melting point is reported as 63 to 64 °C. Work on COc1cc(C)c(C(=O)c2c(C)cccc2O)c(OC)c1OC yielded a melting point of 82 to 84 °C. Work on CCOC(=O)c1ccc(CSc2nnc(S)s2)cc1 yielded a melting point of 114 to 115 °C. Cn1cc2c(n1)-c1cnn(C)c1CC2 gave a melting point of 140 to 145 °C. With O=C(O)C1Cc2c(c(Cl)cc3c(-c4cccs4)noc23)O1 (stereo not given) the melting point was 249 to 251 °C. With CSc1ccc(Oc2ccc([N+](=O)[O-])cc2)c(C)c1 the melting point was 81.6 to 84.4 °C. With C=C(C)OC(=O)N1C(=O)C(C)N(C(=O)OC(=C)C)c2ccncc21 (racemic) the melting point was 96 to 97 °C. Molecule Oc1ccc(OCc2ccccc2)c(Cl)c1 has a melting point of 49 to 51 °C. Work on Fc1ccc(OC(CN2CCN(c3ccccc3)CC2)c2ccccc2)cc1 (stereo not given) yielded a melting point of 80 to 82 °C. Work on O=[N+]([O-])c1cc(-c2nc3n(c2Cl)CCCC3)c(Cl)cc1Cl yielded a melting point of 111 to 112 °C. Work on Cc1c(NC(=O)C(C)(C)C)cccc1C(F)(F)F yielded a melting point of 122 °C. Molecule CCOC(=O)CC1NCCN(CCc2c[nH]c3ccc(Cl)cc23)C1=O (stereo not given) has a melting point of 136 °C. Nc1ncnc2c1c(-c1cc(O)cc(F)c1)nn2Cc1oc2cccc(F)c2c(=O)c1-c1cccc(F)c1 gave a melting point of 136 to 138 °C. Molecule O=C(CCCl)N1Cc2cccc3[nH]cc(c23)C1 has a melting point of 158 to 161 °C. Work on O=C(CCCl)Nc1ccc(C(=O)c2ccccc2)cc1 yielded a melting point of 135 to 136 °C. For COC(=O)C1Oc2ccc(Cl)cc2C(c2ccccc2)(C(C)(C)C)O1 (stereo not given), the melting point was 85 °C. For O=c1c2ccc(-c3nnn[nH]3)cc2oc2ccc(OCCCO)cc12, the melting point was 270 °C. Molecule O=C(O)c1ccc(COc2ccccc2-c2cc(O)c(SCCc3ccccc3)c(=O)o2)cc1 has a melting point of 227 °C. Molecule CC(C)(O)C1CCN(Cc2ccccc2)CC1 has a melting point of 66 °C. In the case of COC(=O)c1ccc(N)cn1, the melting point is reported as 147 to 150 °C. CCCS(=O)(=O)Nc1nc(CN2CCN(C(c3ccccc3)c3ccccc3)CC2)cs1 gave a melting point of 165 to 167 °C. In the case of S=C(Nc1ccccc1Br)c1ccccc1, the melting point is reported as 157 to 158 °C. In the case of CCCn1ncnc1COc1nn2c(-c3ccc(F)cc3)nncc2c1-c1ccccc1F, the melting point is reported as 148 °C. CCN(c1nc(C)cc(C)n1)c1ccc(CC=NOC)cc1S(C)(=O)=O gave a melting point of 151 to 154 °C. Work on CS(=O)(=O)c1ccc(-c2oc3ccccc3c(=O)c2-c2ccc(Br)cc2)cc1 yielded a melting point of 168 to 170 °C. CC(C)(C)c1ccc2c(c1)Cc1cc(C(C)(C)C)ccc1S2 showed a melting point of 152 to 154 °C. CCCCNS(=O)(=O)CC(O)C(O)C(CC1CCCCC1)NC(=O)c1ccc(O)c(O)c1 (stereo not given) showed a melting point of 162 to 165 °C. COC(=O)C(C)(C)OCC#Cc1cc(Cl)ccc1NS(=O)(=O)c1ccc(OC)cc1 showed a melting point of 98 to 100 °C. In the case of O=C(O)c1cc(C(=O)O)c2c(Cl)cc(Cl)cc2n1, the melting point is reported as 246 °C. For Cc1cc(-n2cnn(Cc3ccc(F)cc3)c2=O)sc1C(=O)NCc1cccnc1, the melting point was 180 to 182 °C. With O=c1ncc(Br)cn1Cc1cccs1 the melting point was 188 to 190 °C. For O=C(Nc1ccc(-c2cnc(-c3ccc(NC(=O)C4CCCCC4)cc3)[nH]2)cc1)c1cccnc1, the melting point was 315 to 317 °C. Molecule NC(=O)Cc1ccc(-c2ccc3nnn(Cc4ccc5ncccc5c4)c3n2)cc1 has a melting point of 220 to 223 °C. Molecule N#CC(O)C(=O)c1ccccc1 (stereo not given) has a melting point of 100 to 105 °C. Work on CN(CCN1CCC(Nc2nc3ccccc3n2Cc2ccc(F)cc2)CC1)c1nccs1 yielded a melting point of 143 °C.
